Assay results taken from PMC4284078 (Virology, 2014).

Experiment: FTIR spectroscopy secondary structure
Assay type: physicochemical
Conditions: 2 mM peptide in deuterated 10 mM phosphate buffer pD 5.6, 25°C, means of four separate determinations, SE ± 5% or better

| Substance | % Conformation Disordered [%] | % Conformation Turn [%] | % Conformation α-Helix [%] | % Conformation β-Sheet [%] |
| --- | --- | --- | --- | --- |
| Arg Cys^S- Arg Phe Arg Val D-Pro Cha His Arg Tyr Arg Cys^s Arg -CON H2 (disulfide) [HCV5] | 12.83 | 25.72 | 10.55 | 50.90 |
| Cys^S- Ser Phe Arg Val Gly Leu His Glu Tyr Pro Cys^s -CON H2 (disulfide) [HCV3] | 12.04 | 21.96 | 11.60 | 54.34 |
| Pal-Ahx-Ahx- Arg Cys^S- Arg Phe Arg Val D-Pro Cha His Arg Tyr Arg Cys^S- Arg -CON H2 (disulfide) [HCV6] | 14.40 | 20.39 | 12.34 | 52.87 |
| Val Ser Phe Arg Val Gly Leu His Glu Tyr Pro Val -CON H2 [HCV1] | 23.74 | 31.05 | 2.10 | 43.11 |
